From ChEMBL document CHEMBL1201862, “PubChem BioAssay data set” (2004)
Activity calls are given as the source filed them.

Experiments:
Vero [1] = experiment: cells; format: functional, cell-based; conditions: Chlorocebus sabaeus
Vero [2] = experiment: cells; format: functional; conditions: Chlorocebus sabaeus
[3] = microbe, parasite or virus in culture; format: functional; conditions: Mycobacterium tuberculosis
[4] = blockers of HIV-1 ZM109 envelope-driven cell-cell fusion – HeLa effector, CEM target cells, luciferase, cherry-pick, dose response (AID 652058); format: functional, cell-based;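 further: luciferase signal from HIV-1 Env mediated cell-cell fusion of effector and target cells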
[5] = HIV-1 AD8 envelope cell-cell fusion blockers – cherry-pick, dose response (AID 652062); format: functional, cell-based;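 further: luciferase signal from cell-cell fusion driven by HIV-1 clade B AD8 Env; potency is for inhibitors of fusion seen as a drop in luminescence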
Cytochrome P450 2C19 = Cytochrome P450 2C19 (Homo sapiens, UniProt P33261); experiment: Cytochrome panel assay with activity outcomes. Panel member name: p450-cyp2c19 Compounds with AC50 equal or less than 10 uM are considered active; format: functional; conditions: read-out: AC50
Cytochrome P450 2C19, sequence (P33261 whole entry): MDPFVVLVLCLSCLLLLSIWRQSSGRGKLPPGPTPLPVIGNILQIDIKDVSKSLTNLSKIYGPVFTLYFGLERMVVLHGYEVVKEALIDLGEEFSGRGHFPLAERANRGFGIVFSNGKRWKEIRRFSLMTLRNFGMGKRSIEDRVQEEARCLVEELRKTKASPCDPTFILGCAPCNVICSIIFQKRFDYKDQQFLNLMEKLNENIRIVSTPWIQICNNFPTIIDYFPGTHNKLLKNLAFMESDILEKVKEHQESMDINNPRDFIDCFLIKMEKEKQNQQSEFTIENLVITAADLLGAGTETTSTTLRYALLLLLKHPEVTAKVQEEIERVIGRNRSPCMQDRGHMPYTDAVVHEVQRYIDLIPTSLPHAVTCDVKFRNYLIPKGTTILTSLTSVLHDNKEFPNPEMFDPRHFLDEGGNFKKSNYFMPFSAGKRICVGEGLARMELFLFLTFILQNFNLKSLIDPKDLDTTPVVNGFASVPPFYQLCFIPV

Cytochrome P450 2D6 = Cytochrome P450 2D6 (Homo sapiens, UniProt P10635);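 further: CYP2D6 member of a cytochrome P450 panel assay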
Cytochrome P450 2D6, sequence (P10635 whole entry): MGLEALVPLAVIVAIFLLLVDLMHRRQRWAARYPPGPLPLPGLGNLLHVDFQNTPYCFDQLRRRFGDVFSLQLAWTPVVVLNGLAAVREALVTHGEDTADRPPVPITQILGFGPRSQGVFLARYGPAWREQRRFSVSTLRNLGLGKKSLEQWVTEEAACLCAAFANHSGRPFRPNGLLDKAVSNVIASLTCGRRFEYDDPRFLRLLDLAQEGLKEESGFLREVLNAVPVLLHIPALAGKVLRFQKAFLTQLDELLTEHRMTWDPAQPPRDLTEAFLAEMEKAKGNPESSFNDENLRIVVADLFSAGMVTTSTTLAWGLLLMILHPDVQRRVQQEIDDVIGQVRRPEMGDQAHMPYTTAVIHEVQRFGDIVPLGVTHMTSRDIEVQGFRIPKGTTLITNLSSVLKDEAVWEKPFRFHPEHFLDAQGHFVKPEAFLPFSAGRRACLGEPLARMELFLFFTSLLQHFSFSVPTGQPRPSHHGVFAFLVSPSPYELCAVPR

Cytochrome P450 2C9 = Cytochrome P450 2C9 (Homo sapiens, UniProt P11712)
Cytochrome P450 2C9, sequence (P11712 whole entry): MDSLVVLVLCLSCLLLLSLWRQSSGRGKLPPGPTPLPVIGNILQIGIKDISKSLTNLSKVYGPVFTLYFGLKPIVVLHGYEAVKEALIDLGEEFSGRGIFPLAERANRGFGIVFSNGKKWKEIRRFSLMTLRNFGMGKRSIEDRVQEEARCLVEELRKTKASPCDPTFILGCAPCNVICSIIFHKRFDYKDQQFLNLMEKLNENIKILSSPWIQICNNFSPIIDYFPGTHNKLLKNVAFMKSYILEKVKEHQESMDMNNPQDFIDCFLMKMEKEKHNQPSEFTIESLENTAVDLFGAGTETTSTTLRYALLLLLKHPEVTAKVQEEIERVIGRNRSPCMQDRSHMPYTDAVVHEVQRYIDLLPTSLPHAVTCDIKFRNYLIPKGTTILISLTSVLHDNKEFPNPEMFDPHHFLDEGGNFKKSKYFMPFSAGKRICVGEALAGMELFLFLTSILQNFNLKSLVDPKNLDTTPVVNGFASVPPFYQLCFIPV

[6] = target: T1, Heat shock factor protein 1 (Mus musculus, UniProt P38532); experiment: decrease of HSF1-responsive luciferase luminescence – cell-based, NIH3T3, dose retest, confirmation (AID 2382); format: functional;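 further: NIH3T3 fibroblasts with HSF1-driven luciferase reporter stressed by proteasome inhibitor MG132; luminescence from HSF1-driven luciferase expression after 8 hours of MG132 stress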
T1 sequence (P38532 whole entry): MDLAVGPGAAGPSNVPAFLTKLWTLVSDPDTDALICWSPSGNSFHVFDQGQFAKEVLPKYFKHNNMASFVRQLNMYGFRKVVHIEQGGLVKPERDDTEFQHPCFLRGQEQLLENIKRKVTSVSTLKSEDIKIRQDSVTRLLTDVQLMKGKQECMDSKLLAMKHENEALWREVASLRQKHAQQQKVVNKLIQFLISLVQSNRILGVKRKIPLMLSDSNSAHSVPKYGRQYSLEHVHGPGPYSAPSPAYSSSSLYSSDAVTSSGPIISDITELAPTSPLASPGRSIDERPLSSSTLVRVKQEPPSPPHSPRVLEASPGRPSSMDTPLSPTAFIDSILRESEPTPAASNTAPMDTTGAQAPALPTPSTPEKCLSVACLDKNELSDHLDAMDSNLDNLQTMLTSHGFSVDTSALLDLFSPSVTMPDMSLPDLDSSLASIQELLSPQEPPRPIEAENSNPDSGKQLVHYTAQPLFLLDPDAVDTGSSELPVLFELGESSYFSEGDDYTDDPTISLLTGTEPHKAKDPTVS

[7] = reduction of Shn3 3'UTR-driven luciferase in osteoblasts – cell-based, Clone20 osteoblasts, firefly luciferase, cherry-picked, dose response (AID 624132); format: functional;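 further: firefly luciferase luminescence from reporter carrying the Shn3 3'UTR in osteoblasts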
[8] = A549 cell cytotoxicity, dose response, cytotoxicity control, plate reader, cherry-pick, antagonist series (AID 743412); format: functional, cell-based
[9] = toxicity toward HepG2 liver cells – cell-based, plate reader, cherry-pick, antagonist series, cytotoxicity control, dose response (AID 743416); format: functional
[10] = blockers of bursicon-stimulated LGR2 cAMP reporter – cell-based, HEK293, CRE-luciferase reporter, cherry pick, set 2, dose response (AID 743343); format: functional;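 further: transfected cells were stimulated with diluted bursicon conditioned medium after compound addition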
[11] = blockade of melanocortin 4 receptor signaling – cell-based, plate reader, cherry pick, counter-screen for LGR2 antagonist project, dose response (AID 743444); format: functional;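 further: transfected HEK 293 cells stimulated with alpha-MSH peptide; potency of inhibitors of the alpha-MSH evoked signal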
[12] = viability loss in HEK293 cells – cell-based, plate reader, cherry-picked samples, cytotoxicity control, dose response (AID 743446); format: functional
cells [13] = format: functional, cell-based
cells [14] = format: functional, cell-based; remark: listed apart in the source
[15] = target: Glucose-6-phosphate 1-dehydrogenase (Homo sapiens, UniProt P11413); experiment: inhibition of Homo sapiens G6PD, dose series – biochemical, fluorescence, selectivity assay for P. falciparum G6PD inhibitor project, dose response (AID 504792); format: functional
Glucose-6-phosphate 1-dehydrogenase, sequence (P11413 whole entry): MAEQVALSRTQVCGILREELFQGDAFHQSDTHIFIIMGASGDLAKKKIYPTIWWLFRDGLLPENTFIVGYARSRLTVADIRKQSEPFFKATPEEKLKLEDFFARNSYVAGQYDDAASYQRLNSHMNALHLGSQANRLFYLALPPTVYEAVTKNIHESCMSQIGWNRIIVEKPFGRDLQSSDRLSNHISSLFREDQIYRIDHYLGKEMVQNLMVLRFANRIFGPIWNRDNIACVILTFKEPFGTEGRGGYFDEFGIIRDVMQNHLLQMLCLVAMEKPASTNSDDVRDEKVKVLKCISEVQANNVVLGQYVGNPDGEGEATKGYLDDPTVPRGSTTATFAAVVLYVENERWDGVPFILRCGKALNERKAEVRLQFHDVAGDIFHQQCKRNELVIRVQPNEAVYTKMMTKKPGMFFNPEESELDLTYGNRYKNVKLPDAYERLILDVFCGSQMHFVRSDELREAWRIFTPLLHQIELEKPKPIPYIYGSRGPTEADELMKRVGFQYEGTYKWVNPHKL

Caspase-6 = target: T2, Caspase-6 (Homo sapiens, UniProt P55212); experiment: inhibition of CASP6 peptide cleavage – biochemical, VEID-R110 fluorescence, cherry-pick, dose response (AID 720632)
T2 sequence (P55212 whole entry): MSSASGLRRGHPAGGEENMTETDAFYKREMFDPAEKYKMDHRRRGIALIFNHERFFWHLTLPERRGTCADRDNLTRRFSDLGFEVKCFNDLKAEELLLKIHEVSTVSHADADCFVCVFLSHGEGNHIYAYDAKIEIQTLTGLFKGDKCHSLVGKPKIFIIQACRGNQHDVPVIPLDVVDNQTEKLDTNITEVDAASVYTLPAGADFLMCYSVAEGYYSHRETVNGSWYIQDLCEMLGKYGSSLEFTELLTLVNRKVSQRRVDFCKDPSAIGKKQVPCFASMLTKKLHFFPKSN

[16] = target: Ras and Rab interactor 1/Tyrosine-protein kinase ABL1 (Homo sapiens, UniProt P00519+Q13671); format: functional;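 further: biochemical TR-FRET dose-response test measuring inhibition of binding between Rin1 and Abl proteins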
Ras and Rab interactor 1/Tyrosine-protein kinase ABL1, sequence (P00519 whole entry): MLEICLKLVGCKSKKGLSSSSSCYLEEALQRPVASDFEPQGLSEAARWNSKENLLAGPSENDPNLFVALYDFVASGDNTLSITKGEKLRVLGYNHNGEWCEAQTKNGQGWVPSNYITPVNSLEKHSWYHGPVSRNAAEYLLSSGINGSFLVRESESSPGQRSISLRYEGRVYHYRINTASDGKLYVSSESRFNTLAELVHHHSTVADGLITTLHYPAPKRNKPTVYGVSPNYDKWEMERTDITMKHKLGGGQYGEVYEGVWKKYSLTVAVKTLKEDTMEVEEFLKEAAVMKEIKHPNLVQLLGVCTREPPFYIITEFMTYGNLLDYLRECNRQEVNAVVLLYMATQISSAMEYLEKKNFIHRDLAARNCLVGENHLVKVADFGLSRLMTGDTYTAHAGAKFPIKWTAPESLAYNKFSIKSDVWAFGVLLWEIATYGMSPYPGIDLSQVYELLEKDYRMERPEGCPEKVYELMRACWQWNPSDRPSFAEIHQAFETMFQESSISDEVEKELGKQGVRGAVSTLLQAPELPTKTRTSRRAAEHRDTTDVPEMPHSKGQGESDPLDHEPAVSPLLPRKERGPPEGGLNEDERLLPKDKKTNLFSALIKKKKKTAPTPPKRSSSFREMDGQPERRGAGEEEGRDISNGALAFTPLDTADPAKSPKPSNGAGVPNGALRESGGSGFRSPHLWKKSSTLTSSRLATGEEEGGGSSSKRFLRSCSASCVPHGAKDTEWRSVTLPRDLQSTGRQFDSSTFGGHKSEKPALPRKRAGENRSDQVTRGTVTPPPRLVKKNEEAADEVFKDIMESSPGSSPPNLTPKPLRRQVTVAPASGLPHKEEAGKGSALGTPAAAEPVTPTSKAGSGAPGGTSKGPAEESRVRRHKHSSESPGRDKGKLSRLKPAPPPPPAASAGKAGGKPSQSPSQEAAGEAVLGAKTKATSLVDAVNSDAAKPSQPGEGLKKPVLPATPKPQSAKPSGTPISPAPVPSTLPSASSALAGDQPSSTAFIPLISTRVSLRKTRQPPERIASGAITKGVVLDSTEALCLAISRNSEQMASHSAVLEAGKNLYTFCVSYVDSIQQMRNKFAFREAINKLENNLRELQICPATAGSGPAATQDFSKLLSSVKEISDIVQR
Ras and Rab interactor 1/Tyrosine-protein kinase ABL1, sequence (Q13671 whole entry): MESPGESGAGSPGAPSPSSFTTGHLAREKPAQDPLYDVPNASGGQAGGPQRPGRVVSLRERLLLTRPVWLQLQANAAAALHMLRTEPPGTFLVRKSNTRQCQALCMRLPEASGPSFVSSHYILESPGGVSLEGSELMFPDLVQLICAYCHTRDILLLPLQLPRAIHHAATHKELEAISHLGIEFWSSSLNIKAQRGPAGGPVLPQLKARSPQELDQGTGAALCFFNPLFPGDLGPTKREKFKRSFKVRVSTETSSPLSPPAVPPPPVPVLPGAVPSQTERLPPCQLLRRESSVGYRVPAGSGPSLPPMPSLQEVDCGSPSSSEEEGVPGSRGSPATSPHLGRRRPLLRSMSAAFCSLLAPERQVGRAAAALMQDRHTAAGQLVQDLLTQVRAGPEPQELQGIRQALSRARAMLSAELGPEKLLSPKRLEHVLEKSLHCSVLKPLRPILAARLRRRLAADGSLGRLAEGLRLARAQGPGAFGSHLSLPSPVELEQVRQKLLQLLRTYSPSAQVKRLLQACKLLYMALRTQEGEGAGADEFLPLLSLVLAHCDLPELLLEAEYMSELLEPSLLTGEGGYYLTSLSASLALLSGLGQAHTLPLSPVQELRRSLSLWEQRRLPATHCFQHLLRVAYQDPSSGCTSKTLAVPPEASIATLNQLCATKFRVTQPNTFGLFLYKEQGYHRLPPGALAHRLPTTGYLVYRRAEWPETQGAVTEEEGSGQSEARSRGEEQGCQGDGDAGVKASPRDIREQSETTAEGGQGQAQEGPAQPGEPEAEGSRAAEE

Cytochrome P450 3A4 = Cytochrome P450 3A4 (Homo sapiens, UniProt P08684);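 further: CYP3A4 tested as one member of a cytochrome P450 panel screen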
Cytochrome P450 3A4, sequence (P08684 whole entry): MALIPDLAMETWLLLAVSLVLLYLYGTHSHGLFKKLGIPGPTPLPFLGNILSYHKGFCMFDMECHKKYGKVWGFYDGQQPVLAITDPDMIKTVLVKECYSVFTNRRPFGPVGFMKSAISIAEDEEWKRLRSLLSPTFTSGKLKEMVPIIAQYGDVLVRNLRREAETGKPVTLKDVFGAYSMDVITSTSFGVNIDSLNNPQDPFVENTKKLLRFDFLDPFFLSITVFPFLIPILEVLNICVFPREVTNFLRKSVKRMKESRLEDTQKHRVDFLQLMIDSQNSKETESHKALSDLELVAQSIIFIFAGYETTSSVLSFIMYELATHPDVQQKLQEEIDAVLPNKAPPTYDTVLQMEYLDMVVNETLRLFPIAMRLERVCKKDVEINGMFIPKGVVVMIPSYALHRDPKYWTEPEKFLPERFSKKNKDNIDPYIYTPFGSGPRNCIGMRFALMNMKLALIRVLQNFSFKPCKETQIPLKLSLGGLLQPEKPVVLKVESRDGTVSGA

[17] = non-specific 3'UTR reporter inhibition in Clone20-Shn3RL – cell-based, Renilla luciferase, cherry-picked, counter-screen for Shn3 inhibitor project, dose response (AID 624133); format: functional
BJ [18] = experiment: BJ-TERT fibroblast viability loss – cell-based, RAS-independent, luminescence, dose response (AID 1933); format: functional; conditions: Homo sapiens
BJ [19] = experiment: cells; format: functional, cell-based; conditions: Homo sapiens
BJ [20] = experiment: BJ-TERT-LT-ST fibroblast viability loss – cell-based, RAS-independent, luminescence, dose response (AID 1935); format: functional; conditions: Homo sapiens;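 further: BJ fibroblasts immortalized with TERT plus LT and ST oncogenes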
[21] = DRD fibroblast viability loss – cell-based, non-viral oncogenic, luminescence, dose response (AID 1934); format: functional; conditions: Homo sapiens
[22] = growth inhibition of yeast DHODH-expressing 3D7 parasites – SYBR Green, dry powder samples, dose response (AID 1159570); format: functional, cell-based;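 further: parasite growth measured after 72 hours of compound exposure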
[23] = P. falciparum Dd2 growth inhibitors, dose response, SYBR Green, cherry-picked samples (AID 1159567); format: functional, cell-based
[24] = Dd2 malaria parasite growth inhibition potency – SYBR Green, dry powder samples, dose response (AID 1159566); format: functional, cell-based;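 further: potency for growth inhibition with lower SYBR green DNA signal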
[25] = growth inhibition of PfATP4-mutant resistant parasites – NITD609-resistant line, SYBR Green, dry powder, dose response (AID 1159571); format: functional, cell-based;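 further: parasites synchronized at ring stage by sorbitol before testing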
[26] = target: T3, Microphthalmia-associated transcription factor (Homo sapiens, UniProt O75030); experiment: reducers of TRPM1 reporter luminescence, concentration series – cell-based, SK-MEL-5, cherry-picked, set 3, MITF inhibitor project, dose response (AID 493073); format: functional;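 further: SK-MEL-5 melanoma cells with luciferase driven by the MITF target TRPM1 promoter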
T3 sequence (O75030 whole entry): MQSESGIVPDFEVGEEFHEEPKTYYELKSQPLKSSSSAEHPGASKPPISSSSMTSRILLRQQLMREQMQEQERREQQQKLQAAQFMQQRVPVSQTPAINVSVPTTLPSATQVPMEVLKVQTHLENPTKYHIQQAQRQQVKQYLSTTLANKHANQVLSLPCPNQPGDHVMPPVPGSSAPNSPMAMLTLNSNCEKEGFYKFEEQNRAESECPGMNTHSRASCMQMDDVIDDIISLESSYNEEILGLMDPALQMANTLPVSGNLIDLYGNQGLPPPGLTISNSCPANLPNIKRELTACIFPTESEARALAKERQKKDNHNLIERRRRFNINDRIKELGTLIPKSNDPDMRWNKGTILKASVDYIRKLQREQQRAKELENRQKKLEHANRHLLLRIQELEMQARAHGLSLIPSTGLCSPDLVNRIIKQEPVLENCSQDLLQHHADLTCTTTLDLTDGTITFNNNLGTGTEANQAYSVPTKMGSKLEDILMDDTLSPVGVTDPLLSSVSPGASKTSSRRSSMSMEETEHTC

INS1 = experiment: INS-1E survival protection against cytokine death – cell-based, luminescence, retest, dose response (AID 449756); format: functional; conditions: Rattus norvegicus;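 further: cell death triggered by IL-1 beta plus TNF-alpha plus IFN-gamma mixture; protective hits raise ATP signal compared with cytokine alone wells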
[27] = luciferase reporter signal suppression in cells – H4 neuroglioma cells, luminescence, dose response (AID 1990); format: functional, cell-based
[28] = Luminescence Cell-Based Dose Response HTS to Identify Inhibitors of 5'UTR Stem-Loop Driven Prion Protein mRNA Translation in H4 Neuroglioblastoma Cells. [Related pubchem assays: 1827 (Project Summary), 1813 (Primary HTS)]; format: functional
[29] = alpha-synuclein stem-loop luciferase translation blockers – H4 neuroglioma cells, luminescence, confirmation (AID 1988); format: functional, cell-based
[30] = target: Glyceraldehyde-3-phosphate dehydrogenase (Homo sapiens, UniProt P04406)
Glyceraldehyde-3-phosphate dehydrogenase, sequence (P04406 whole entry): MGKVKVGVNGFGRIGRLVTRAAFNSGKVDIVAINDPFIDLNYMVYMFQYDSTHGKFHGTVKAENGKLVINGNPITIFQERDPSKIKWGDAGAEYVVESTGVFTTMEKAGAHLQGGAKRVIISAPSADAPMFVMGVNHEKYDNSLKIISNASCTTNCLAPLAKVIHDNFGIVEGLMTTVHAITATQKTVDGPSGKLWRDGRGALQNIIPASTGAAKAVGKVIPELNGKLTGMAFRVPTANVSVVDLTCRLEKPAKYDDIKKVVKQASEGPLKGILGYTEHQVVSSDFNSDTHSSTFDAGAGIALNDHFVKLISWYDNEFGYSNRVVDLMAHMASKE

Nonstructural protein 1 = Nonstructural protein 1 (Influenza A virus, UniProt Q194T2); format: functional, Influenza A virus (A/California/07/2009(H1N1))
Nonstructural protein 1, sequence (Q194T2 whole entry): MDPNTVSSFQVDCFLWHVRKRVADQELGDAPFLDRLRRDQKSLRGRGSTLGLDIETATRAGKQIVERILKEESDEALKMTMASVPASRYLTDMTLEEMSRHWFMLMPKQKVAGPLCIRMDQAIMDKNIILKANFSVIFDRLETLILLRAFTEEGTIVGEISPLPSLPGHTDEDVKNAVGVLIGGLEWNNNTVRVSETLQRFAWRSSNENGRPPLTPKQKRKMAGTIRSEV

Paired box protein Pax-8 = Paired box protein Pax-8 (Homo sapiens, UniProt Q06710); experiment: PAX8 transcriptional activity inhibition in RMG-I – RMG-I cells, luciferase, cherry-pick, dose response (AID 687027); format: functional, cell-based;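 further: luciferase reporter driven by Pax8 target thyroperoxidase promoter measured by SteadyGlo luminescence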

Cn1cc([N+](=O)[O-])c(C(=O)Nc2ccn(C34CC5CC(CC(C5)C3)C4)n2)n1
IC50 (Vero [1]): 24.3 µM (active) | CC50 (Vero [2]): > 25 µM (active)

O=C(NC1CCCCC1)c1ccc([N+](=O)[O-])o1
IC50 (Vero [1]): > 25 µM (active) | CC50 (Vero [2]): 18.4 µM (active)

COc1ccc(NC(=O)c2ccc(Cl)c(S(=O)(=O)N3CCc4ccccc4C3)c2)cn1
CC50 [3]: > 40 µM (active) | AC50 [4]: 1.95 µM (active) | AC50 [5]: 19.4 µM (active)

COc1ccc(Cl)cc1NC(=O)CN1C(=O)CSC1=O
AC50 (Cytochrome P450 2C19): 39.8 µM (inconclusive) | AC50 (Cytochrome P450 2D6): 5.62 µM (inconclusive) | AC50 (Cytochrome P450 2C9): inconclusive

COc1ccc(-c2nsc3c(N4CCCCC4C)ncnc23)cc1 (stereo not drawn)
EC50 [6]: < 160 nM (active) | AC50 [7]: < 0.26 µM (active) | AC50 [8]: > 52 µM (inactive) | AC50 [9]: > 52 µM (inactive) | AC50 [10]: 135 nM (active) | AC50 [11]: 0.134 µM (active) | AC50 [12]: > 52 µM (inactive)

Cc1noc(C(=O)Nc2sc3c(c2C#N)CCC3)c1Cl
EC50 (cells [13]): > 350 µM (not active) | EC50 (cells [14]): 57 µM (active) | IC50 [15]: 47.5 µM (inactive)

O=[N+]([O-])c1ccc(F)c2c(O)[nH]nc12
AC50 (Caspase-6): 6.73 µM (active)

COc1ccc(CN(C)CCCn2ccc(NC(=O)OCc3ccccc3)nc2=O)cc1OC
IC50 [16]: 23.5 µM (inactive)

OC(c1ccccc1)(c1ccccc1)C1CCN(CCCOc2ccc(C(F)(F)F)cc2)CC1
AC50 [8]: 9.23 µM (active) | AC50 [9]: 10.7 µM (active) | AC50 [10]: 18800 nM (active) | AC50 [11]: 11.6 µM (active) | AC50 [12]: 16.6 µM (active)

C=CCNC(=S)N/N=C/c1ccc(-c2cc(Cl)ccc2Cl)o1
AC50 (Cytochrome P450 2C19): 3.16 µM (inconclusive) | AC50 (Cytochrome P450 3A4): 10 µM (inconclusive) | AC50 (Cytochrome P450 2C9): inconclusive

COc1ccccc1OCCCCCc1c(C)n[nH]c1C
AC50 (Cytochrome P450 2C19): 1.58 µM (inconclusive) | AC50 (Cytochrome P450 2D6): 11.2 µM (inconclusive) | AC50 (Cytochrome P450 2C9): inconclusive

COc1ccc(NS(=O)(=O)c2ccc(NC(=O)C(CCSC)NC(N)=O)cc2)cc1 (stereo not drawn)
AC50 [7]: > 70 µM (inactive) | AC50 [17]: 26.9 µM (active)

COc1ccccc1N(C(=O)c1snc(C(N)=O)c1N)C(C(=O)NCc1ccccc1)c1ccc(O)cc1 (stereo not drawn)
IC50 [16]: 50 µM (inactive)

CC1(C)CCSC(/C=C/c2ccccc2)=N1
EC50 (BJ [18]): 7.83 µM (active) | EC50 (BJ [19]): 143 µM (active) | EC50 (BJ [20]): 12.4 µM (active) | EC50 [21]: 8.6 µM (active) | IC50 (Vero [1]): 19.2 µM (active) | CC50 (Vero [2]): 18.5 µM (active)

COc1ccc2c(-c3cc4ccc(OCc5ccc(F)cc5)cc4oc3=O)cc(=O)oc2c1
EC50 (BJ [18]): 3.13 µM (active) | EC50 (BJ [19]): > 150 µM (not active) | EC50 (BJ [20]): 7.45 µM (inconclusive) | EC50 [21]: 8.57 µM (active)

COc1ccc(NC(=O)N(C)C[C@@H]2Oc3cc(-c4ccc(C)cc4)ccc3S(=O)(=O)N([C@H](C)CO)C[C@@H]2C)cc1
AC50 [22]: 3.13 µM (active) | AC50 [23]: 2.58 µM (active) | AC50 [24]: 2.25 µM (active) | AC50 [25]: 3.25 µM (active)

C/C(=N\NC(=O)C(c1ccccc1)c1ccccc1)c1ccccn1
AC50 [26]: 5.96 µM (active) | AC50 (INS1): 1.3 µM (active)

CCOc1ccc(NC(=O)Cn2nnc(C(=O)NCc3ccccc3OC)c2N)cc1
AC50 (Cytochrome P450 2C19): 5.01 µM (inconclusive) | AC50 (Cytochrome P450 2C9): inconclusive

O=C1C2CCCN2C(c2ccc(F)cc2)N1c1ccc(Cl)cc1 (stereo not drawn)
IC50 (Vero [1]): > 25 µM (active)

O=C1c2ccccc2C(=O)N1Cc1cc(-c2ccccc2Cl)no1
AC50 (Cytochrome P450 2D6): 3.16 µM (inconclusive) | AC50 (Cytochrome P450 3A4): 39.8 µM (inconclusive) | AC50 (Cytochrome P450 2C9): inconclusive

COc1ccc(C(=O)Nc2ccc(C)cn2)c(OC)c1
EC50 [27]: 1.15 µM (active) | EC50 [28]: 28.2 µM (active) | EC50 [29]: 307 nM (active) | AC50 [26]: 3.7 µM (active)

COc1ccccc1CN(C)C(=O)CN1CCN(C(=O)c2cccs2)CC1
AC50 [4]: 32.8 µM (active)

COc1cc(S(=O)(=O)Nc2cccnc2)c(OC)cc1Br
IC50 [30]: > 100 µM (not active)

CCCCN1C(=O)NC2NC(=O)NC21 (stereo not drawn)
IC50 (Nonstructural protein 1): > 100 µM (active) | IC50 [16]: 0.905 µM (active)

Cn1nnnc1Sc1ncnc2scc(-c3ccc4c(c3)OCO4)c12
CC50 (Vero [2]): 24 µM (active) | AC50 (Paired box protein Pax-8): 747 nM (active) | AC50 [8]: 14.4 µM (active) | AC50 [10]: 695 nM (active) | AC50 [11]: 1.34 µM (active) | AC50 [12]: 28.8 µM (active)

COc1ccc(CCC(=O)Nc2ccc(S(=O)(=O)Nc3nccc(C)n3)cc2)cc1
AC50 (Caspase-6): 47.1 µM (active)
